Assay results taken from publication PMC8456950, “Structure‐Guided Design of G‐Protein‐Coupled Receptor Polypharmacology” (Angewandte Chemie (International Ed. in English), 2021).

Key:
Human A2AAR = Human A2AAR (Homo sapiens, UniProt P29274); experiment: A2AAR functional assay, inhibition of NECA-elicited cAMP production in CHO-A2A cells; format: cell-based; set-up: expressed in transfected cells; details: mean±SEM n=3
Protocol: Functional assays. For the human A2AAR, functional experiments measuring cAMP production were carried out in CHO-A2A cell line. The day before the assay, the cells were seeded on a 96-well culture plate (Falcon 353072). The cells were washed with wash buffer (Dulbecco’s modified eagle’s medium nutrient mixture F-12 ham (Sigma D8062), 25 mM Hepes; pH=7.4). Wash buffer was then replaced by incubation buffer (Dulbecco’s modified eagle’s medium nutrient mixture F-12 ham (Sigma D8062), 25 mM Hepes, 20 µM Rolipram, pH=7.4). The studied compounds wer e added and incubated at 37 °C for 15 min. After incubation, NECA (Sigma E2387) was added in several concentrations and incubated at 37 °C for 15 min. After incubation, the amount of cAMP was determined using the cAMP Biotrak Enzymeimmunoassay (EIA) System Kit (GE Healthcare RPN225). Data were adjusted to non-linear fitting by using Prism V2.1 (GraphPad Inc, Chicago USA). K B values were calculated from the IC50 values obtained for each compound by using the formula:
(§1) KB=I C50/(1+([NECA]/EC50 NECA)). […]

Human A1AR = biological target: T1, Human A1AR (Homo sapiens, UniProt P30542); experiment: A1AR competition binding ([3H]-DPCPX); details: for A1AR % displacement at 10 µM: 10 µM compound, n=2
T1 construct: expressed in transfected cells; host or cells: CHO-A1AR cell line (membranes)
T1 sequence (P30542 1-326): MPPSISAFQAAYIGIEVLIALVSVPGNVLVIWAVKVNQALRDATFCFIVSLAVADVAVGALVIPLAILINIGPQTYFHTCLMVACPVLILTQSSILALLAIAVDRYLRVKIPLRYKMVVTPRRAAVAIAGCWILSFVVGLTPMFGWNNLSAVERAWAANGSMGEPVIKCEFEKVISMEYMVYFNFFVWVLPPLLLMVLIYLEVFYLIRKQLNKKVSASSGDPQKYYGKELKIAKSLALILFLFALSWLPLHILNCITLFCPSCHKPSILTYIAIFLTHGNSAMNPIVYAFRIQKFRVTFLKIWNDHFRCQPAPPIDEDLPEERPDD
Protocol: Human A1AR competition binding experiments were carried out in multiscreen GF/C 96 -well plates (Millipore, Madrid, Spain) pretreated with assay buffer ( 20 mM Hepes, 100 mM NaCl, 10 mM MgCl2, 2 U/ml adeno sine deamina se, pH=7.4). Each well contained 5 µg of membranes from a CHO-A1AR cell line, 1 nM [3H]-DPCPX (137 Ci/mmol, 1 mCi/Ml, Perkin Elmer NET974001MC), and the compound studied. Non-specific binding was determined in the presence of R-PIA 10 µM (Sigma P4532). The reaction mixture (200 µl/well) was incubated at 25°C for 60 min. The samples were then filtered and washed four times with 250 µl wash buffer (20 mM Hepes, 100 mM NaCl, 10 mM MgCl2, pH=7.4) before measuring in a microplate beta scintillati on counter (Microbeta Trilux, PerkinElmer, Madrid, Spain). Two independent experiments were carried out to calculate K i values (n=2). […]

H1R = biological target: T2, H1R (Homo sapiens, UniProt P35367); experiment: H1R competition binding ([3H]pyrilamine); details: for H1R % displacement at 10 µM: 10 µM compound, n=2
T2 construct: expressed in transfected cells; host or cells: CHO-H1R cell line (membranes)
T2 sequence (P35367 whole entry, species assumed): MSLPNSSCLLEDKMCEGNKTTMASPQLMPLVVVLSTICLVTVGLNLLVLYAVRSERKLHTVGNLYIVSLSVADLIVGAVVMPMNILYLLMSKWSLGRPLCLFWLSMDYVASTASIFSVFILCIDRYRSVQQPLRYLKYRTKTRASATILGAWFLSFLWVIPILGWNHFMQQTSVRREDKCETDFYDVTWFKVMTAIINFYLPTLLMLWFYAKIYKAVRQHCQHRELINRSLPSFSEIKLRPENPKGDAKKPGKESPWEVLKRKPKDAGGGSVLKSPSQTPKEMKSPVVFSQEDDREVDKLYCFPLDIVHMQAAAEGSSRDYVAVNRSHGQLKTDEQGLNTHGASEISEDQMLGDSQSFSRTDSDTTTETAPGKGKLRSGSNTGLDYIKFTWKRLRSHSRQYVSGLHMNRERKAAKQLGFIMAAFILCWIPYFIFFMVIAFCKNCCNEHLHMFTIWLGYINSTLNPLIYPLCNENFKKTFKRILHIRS
Protocol: H1R competition binding experiments were carried out in polypropylene 96-well plates. Each well contained 50 µg of membranes from a CHO-H1R cell line (protein concentration=3860 µg/ml), 4 nM [3H]pyrilamine (20. 1 Ci/mmol, 1 mCi/ml, Perkin Elmer NET594250UC ), and the compound studied. Non-specific binding was determined in the presence of 10 µM triprolidine (T6764, Sigma Aldrich). The reaction mixture (250 µl/well) was incubated at 27 °C for 60 min, after which 200 µL was transferred to GF/B 96 -well plates (Millipore, Madrid, Spain) pretreated with 0. 1% Tween 20 and assay b uffer (Na+ / K+ phosphate buffer pH=7. 4).
The samples were then filtered and washed fou r times with 250 µl wash buffer (Na+/K+ phosphate buffer, pH=7.4), after which 30 µL Universol (MP Biomedicals, Spain) was added […]
and measurements were performed in a microplate beta scintillation counter (Microbeta Trilux, PerkinElmer, Madrid, Spain). Two independent experiments were carried out to calculate Ki values (n=2).
Data were adjusted to non-linear fitting by using Prism V2.1 (GraphPad Inc, Chicago, USA) and Ki values were calculated by using the Cheng-Prusoff equation25. […]
as §1

Human D2R = biological target: T3, Human D2R (Homo sapiens, UniProt P14416); experiment: D2R competition binding ([3H]-spiperone displacement); details: radioligand displacement, mean±SEM of three experiments in duplicate; read-out: D2R binding affinity Ki
T3 construct: expressed in transfected cells; host or cells: CHO-D2R #S20 cell line (membranes)
T3 sequence (P14416 whole entry): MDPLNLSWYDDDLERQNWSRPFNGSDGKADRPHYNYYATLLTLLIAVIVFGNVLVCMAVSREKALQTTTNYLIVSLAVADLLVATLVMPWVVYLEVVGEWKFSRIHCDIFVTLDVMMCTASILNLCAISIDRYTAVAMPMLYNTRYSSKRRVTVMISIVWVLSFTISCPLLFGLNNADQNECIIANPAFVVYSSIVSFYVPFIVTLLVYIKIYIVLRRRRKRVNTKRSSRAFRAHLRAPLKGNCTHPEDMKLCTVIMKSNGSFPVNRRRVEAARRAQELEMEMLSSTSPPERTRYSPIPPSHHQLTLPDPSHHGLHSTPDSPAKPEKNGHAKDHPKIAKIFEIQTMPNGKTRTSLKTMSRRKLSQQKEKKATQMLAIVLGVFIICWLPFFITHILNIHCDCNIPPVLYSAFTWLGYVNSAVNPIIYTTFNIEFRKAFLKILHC
Protocol: Human D2R competition binding experiments w ere carried out in polypropylene 96-well plates. Each well contained 10 µg of membranes from a CHO-D2R #S20 cell line (protein concentration of 3241 µg/ml), 0.4 nM [3H]-spiperone (80. 2 Ci/mmol, 1 mCi/ml, Perkin […]
The reaction mixture (250 µl/well) was incubated at 25°C for 120 min , after which 200 µL was transferred to a GF/C 96 -well plate (Millipore, Madrid, Spain) pretreated with 0. 5% of PEI and treated with binding buffer (50 mM Tris-HCl, 1 mM EDTA, 5 mM MgCl2, 5 mM KCl, 120 mM NaCl, pH=7.4). The […]
samples were filtered and washed four times with 250 µl wash buffer (50 mM Tris-HCl, 0.9% NaCl, pH=7.4) before measuring in a microplate beta scintillation counter (Microbeta Trilux, PerkinElmer, Madrid, Spain). Three independent exp eriments were carried out to calculate Ki values (n=3). […]

Chain of Human A2AAR (P29274 whole entry): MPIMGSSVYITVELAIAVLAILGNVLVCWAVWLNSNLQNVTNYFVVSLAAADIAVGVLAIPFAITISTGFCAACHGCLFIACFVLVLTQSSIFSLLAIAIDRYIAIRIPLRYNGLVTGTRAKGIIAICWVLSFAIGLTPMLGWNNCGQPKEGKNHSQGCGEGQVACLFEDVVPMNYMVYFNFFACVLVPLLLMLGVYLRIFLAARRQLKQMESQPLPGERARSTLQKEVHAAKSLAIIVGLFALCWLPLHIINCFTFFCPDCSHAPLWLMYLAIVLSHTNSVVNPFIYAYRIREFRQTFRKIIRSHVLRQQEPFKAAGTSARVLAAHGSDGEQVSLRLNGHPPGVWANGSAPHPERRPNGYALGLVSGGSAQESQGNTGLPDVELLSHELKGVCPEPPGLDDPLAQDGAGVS

In the case of `CCCN(CCCCC(=O)Nc1nc2c(Br)cccc2s1)C1Cc2ccccc2C1` [Compound 27], the Kb (Human A2AAR) is reported as 510 ± 240 nM, the “A1AR % displacement at 10 µM” value (Human A1AR) is reported as 37 ± 4% and the “H1R % displacement at 10 µM” value (H1R) is reported as 40 ± 1%. It also gave a Ki (Human D2R) of 530 ± 180 nM.
For `CCN(CCCCC(=O)Nc1nc2c(Br)cccc2s1)C1Cc2ccccc2C1` [Compound 22], the “H1R % displacement at 10 µM” value (H1R) was 12 ± 3% and the Ki (Human D2R) was 340 ± 40 nM.
In the case of `CCCN(CCCCC(=O)Nc1nc2c(OC)ccc(OC)c2s1)C1Cc2ccccc2C1` [Compound 30], the Kb (Human A2AAR) is reported as 720 ± 250 nM, the “A1AR % displacement at 10 µM” value (Human A1AR) is reported as 35 ± 1% and the Ki (Human A1AR; mean±SEM of two experiments in duplicate, read-out: A1AR binding affinity Ki) is reported as over 10000 nM. The “H1R % displacement at 10 µM” value (H1R) was 40 ± 3%, the Ki (H1R; mean±SEM of two experiments in duplicate, read-out: H1R binding affinity Ki) was over 10000 nM and the Ki (Human D2R) was 370 ± 30 nM.
With `CCCN(CCCCC(=O)Nc1nc2c(OC)cccc2s1)C1Cc2ccccc2C1` [Compound 26] the Kb (Human A2AAR) was 3600 ± 2000 nM, the “A1AR % displacement at 10 µM” value (Human A1AR) was 22 ± 1% and the Ki (Human D2R) was 230 ± 20 nM.
